# Test results reported in PMC9976286, “Combination of In Silico and In Vitro Screening to Identify Novel Glutamate Carboxypeptidase II Inhibitors” (Journal of Chemical Information and Modeling, 2023).
# Tested on: GCPII
# Experiment: not given
# Details: dataset of 54 GCPII ligands compiled from the PDB; read-out: IC50[nM] (54 actives, PDB ID); cited from earlier work
row,Compound,IC50
1,O=C(O)CC[C@H](C[P@@](=O)(O)CCC(=O)O)C(=O)O [Compound 3BHX],0.7 nM
2,O=C(O)CC[C@H](NC(=O)N[C@@H](Cc1ccc(O)c(I)c1)C(=O)O)C(=O)O [Compound 3D7F],0.5 nM
3,N[C@@H](CC[P@](=O)(O)C[C@@H](CCC(=O)O)C(=O)O)C(=O)O [Compound 3BI0],14 nM
4,CSC[C@H](NC(=O)N[C@@H](CCC(=O)O)C(=O)O)C(=O)O [Compound 3D7G],17 nM
5,"CN(Cc1cnc2nc(N)nc(N)c2n1)c1ccc(C(=O)N[C@H](CC[P@@](=O)(O)C[C@@H](CCC(=O)O)C(=O)O)C(=O)O)cc1 [Compound 3BI1, (2S)-2-{[(R)-[(3R)-3-carboxy-3-{[(4-{[(2,4-diaminopteridin-6-yl)methyl](methyl)amino}phenyl)carbonyl]amino}propyl](hydroxy)phosphoryl]methyl}pentanedioic acid]",0.12 nM
6,CC[C@@H](C)[C@H](NC(=O)c1ccc(F)cc1)C(=O)N[C@@H](CO[P@@](=O)(O)N[C@@H](CCC(=O)O)C(=O)O)C(=O)O [Compound 4P44],16 nM
7,O=C(O)CC[C@H](N[P@](=O)(O)OC[C@H](NC(=O)c1ccccc1)C(=O)O)C(=O)O [Compound 4P4I],35 nM
8,O=C(O)CC[C@H](NC(=O)N[C@@H](CCCC(=O)Nc1ccc(F)cc1)C(=O)O)C(=O)O [Compound 6H7Y],0.35 nM
9,O=C(O)CC[C@H](NC(=O)N[C@@H](CCCCn1cc(COCCOCCNc2ccc([N+](=O)[O-])cc2[N+](=O)[O-])nn1)C(=O)O)C(=O)O [Compound 2XEI],0.54 nM
10,O=C(O)CC[C@H](N[P@](=O)(O)OCCNC(=O)c1ccccc1)C(=O)O [Compound 4P4D],1800 nM
11,O=C(O)CC[C@H](N[P@](=O)(O)OCc1ccc(-c2ccccc2)cc1)C(=O)O [Compound 4P4F],168 nM
12,O=C(O)CC[C@H](N[P@](=O)(O)OCCCCc1ccccc1)C(=O)O [Compound 4P4E],180 nM
13,O=C(CC[C@@H](Cc1ccc(C(=O)O)cc1)C(=O)O)NO [Compound 5D29],97 nM
14,O=C(O)CC[C@H](N[P@](=O)(O)OCCC[C@H](NC(=O)CC[C@H](NC(=O)c1ccc(F)cc1)C(=O)O)C(=O)O)C(=O)O [Compound 4LQG],1.3 nM

# Same assay, conditions: dataset of 54 GCPII ligands compiled from the PDB; read-out: Ki[nM] (54 actives, PDB ID); cited from earlier work
row,Compound,Ki
1,CC(=O)N(CCCC[C@H](NC(=O)N[C@@H](CCC(=O)O)C(=O)O)C(=O)O)Cc1ccc(Br)cc1 [Compound 4NGM],0.0449 nM
2,O=CNCCCC[C@H](NC(=O)N[C@@H](CCC(=O)O)C(=O)O)C(=O)O [Compound 4NGN],0.268 nM
3,O=C(N[C@@H](CCCCNC(=O)c1ccc(I)cc1)C(=O)O)N[C@@H](Cc1ccncc1)C(=O)O [Compound 4OC4],105 nM
4,O=C(N[C@@H](CCCCNC(=O)c1ccc(I)cc1)C(=O)O)NC1(C(=O)O)CC1 [Compound 4OC0],318 nM

# Same assay, conditions: listed by ChEMBL ID or PDB ID; read-out: GCPII IC50 (Fig. S20, inhibitors with subnanomolar activities); cited from earlier work
row,Compound,IC50
1,CN(Cc1cccc(F)c1)C(=O)CCC[C@H](NC(=O)N[C@@H](CCC(=O)O)C(=O)O)C(=O)O [CHEMBL4291245],0.46 nM
2,O=C(O)CC[C@H](NP(=O)(O)O)C(=O)O [CHEMBL241779],0.86 nM
4,CN(C(=O)CCC[C@H](NC(=O)N[C@@H](CCC(=O)O)C(=O)O)C(=O)O)c1ccc(F)cc1 [CHEMBL4288368],0.2 nM
5,O=C(O)CC[C@H](NP(=O)(O)OC[C@H](NC(=O)CC[C@H](NC(=O)CCCCCNC(=O)c1ccc(-c2c3ccc(=O)cc-3oc3cc(O)ccc23)c(C(=O)O)c1)C(=O)O)C(=O)O)C(=O)O [CHEMBL1921899],0.41 nM

# Target: T1, Recombinant human GCPII (Homo sapiens, UniProt Q04609)
# T1 construct: made in house
# T1 sequence (Q04609 whole entry): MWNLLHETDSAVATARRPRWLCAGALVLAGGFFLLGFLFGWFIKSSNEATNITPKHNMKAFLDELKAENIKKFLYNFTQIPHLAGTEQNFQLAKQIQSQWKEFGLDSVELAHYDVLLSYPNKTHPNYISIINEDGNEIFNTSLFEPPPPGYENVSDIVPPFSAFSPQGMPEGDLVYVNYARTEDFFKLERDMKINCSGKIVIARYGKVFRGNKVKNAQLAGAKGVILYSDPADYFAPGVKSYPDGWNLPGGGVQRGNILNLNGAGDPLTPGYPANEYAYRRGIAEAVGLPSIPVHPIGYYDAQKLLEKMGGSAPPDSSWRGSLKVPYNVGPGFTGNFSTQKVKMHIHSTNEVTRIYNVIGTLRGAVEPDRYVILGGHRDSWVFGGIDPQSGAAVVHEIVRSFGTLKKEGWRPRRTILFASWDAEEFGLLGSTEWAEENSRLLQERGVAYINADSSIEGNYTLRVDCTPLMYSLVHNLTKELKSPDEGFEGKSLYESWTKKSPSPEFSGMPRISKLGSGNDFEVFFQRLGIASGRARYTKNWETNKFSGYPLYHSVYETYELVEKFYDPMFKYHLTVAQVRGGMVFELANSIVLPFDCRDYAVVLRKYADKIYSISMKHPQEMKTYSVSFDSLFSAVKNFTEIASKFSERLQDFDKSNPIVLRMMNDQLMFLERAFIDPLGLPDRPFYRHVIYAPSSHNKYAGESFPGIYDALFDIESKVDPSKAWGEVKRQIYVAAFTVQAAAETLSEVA
# Experiment: In vitro GCPII inhibition assay, fluorescence-based, RP-HPLC readout (screening at 20 μM and IC50)
# Assay type: biochemical
# Details: compound at 20 μM; 100 nM fluorescein-labeled Glu-Glu dipeptide substrate
# Procedure: The inhibitory potency of the selected compounds against GCPII was determined using a fluorescence-based assay developed in-house. Recombinant human GCPII purified as described previously[40],[41] (final concentration 0.02 nM) was preincubated with 20 μM test compound for the screening in 50 mM Tris-HCl, 150 mM NaCl, 0.001% C12E8 at 37 °C for 10 min. The reaction was initiated by the addition of 100 nM Glu-Glu dipeptide labeled with fluorescein (substrate)[42] in a total volume of 50 μL. Following 15 min incubation, the reaction was terminated by the addition of 5 μL of 0.1% TFA in 5% acetonitrile. […] The data were fitted using the GraphPad Prism software, and IC50 values were calculated from the inhibition curves of two independent experiments using a nonlinear analysis protocol.
row,Compound,Inhibition [%] of GCPII activity
1,Nc1cc(N)c(C(=O)O)cc1C(=O)O [Compound 28],29%
2,O=C(O)c1cc(C(=O)O)c(C(=O)O)cc1C(=O)O [Compound 24],33%
3,CC(C)(CC(=O)Nc1scc(-c2cccs2)c1C(=O)O)CC(=O)Nc1scc(-c2cccs2)c1C(=O)O [Compound 22],38%
4,O=C(O)c1ccc(CN2CC(C(=O)O)CC2=O)cc1 (stereo not shown) [Compound 45],1%

# Same assay, conditions: compound at 20 μM; 100 nM fluorescein-labeled Glu-Glu dipeptide substrate; read-out: Inhibition [%] of GCPII activity
row,Compound,inhibition at 20 µM
1,O=C(O)CCNC(=O)C(F)(F)C(F)(F)C(=O)NCCC(=O)O [Compound 1],0%
2,COc1ccc(Cl)cc1NC(=O)c1ccc(C(=O)O)cc1C(=O)O [Compound 13],0%
3,O=C(/C=C/c1ccccc1)Oc1cc([S@TB3](=O)(=O)O)cc2cc([S@TB3](=O)(=O)O)ccc12 [Compound 48],16%
4,COc1ccc(OC)c(NC(=O)c2ccc(C(=O)O)cc2C(=O)O)c1 [Compound 12],0%
5,Nc1cc(N)c(C(=O)O)cc1C(=O)O [Compound 28],> 25%
6,O=C(O)c1ccc(C(=O)Nc2ccc(Oc3ccccc3)cc2)c(C(=O)O)c1 [Compound 41],0%
7,O=C(O)CCC(=O)Nc1cc(C(=O)O)ccc1Br [Compound 9],0%
8,O=C(O)CN[S@TB17](=O)(=O)c1cccc(C(=O)O)c1 [Compound 32],1%
9,CC(C)(CC(=O)Nc1scc(-c2ccccc2)c1C(=O)O)CC(=O)Nc1scc(-c2ccccc2)c1C(=O)O [Compound 26],18%
10,O=C(O)CSc1nc2ccccc2n1CC(=O)O [Compound 21],1%
11,CCCCc1nc(Cl)c(C(=O)O)n1Cc1ccc(-c2ccccc2-c2nnn[nH]2)s1 [Compound 49],15%
12,O=C(O)CCN(CCC(=O)O)c1ccc(/C=C/c2ccnc3ccccc23)cc1 [Compound 27],18%
13,COc1cc(C(=O)O)ccc1O[S@TB17](=O)(=O)c1ccc(F)cc1 [Compound 44],0%
14,Cc1sc(NC(=O)c2cc(C(=O)O)ccc2C(=O)O)c(C#N)c1C [Compound 6],4%
15,CCCCc1ccc(NC(=O)c2ccc(C(=O)O)cc2C(=O)O)cc1 [Compound 39],10%
16,O=C(O)CNc1ccc(C(=O)O)cc1 [Compound 33],0%
17,O=C(O)CN1CCC(C(=O)O)CC1 [Compound 25],0%
18,O=C(O)c1ccccc1NC(=O)[C@@H](O)[C@H](O)C(=O)O [Compound 34],2%
19,COc1ccc([C@H](C)NC(=O)c2cc(C(=O)O)ccc2C(=O)O)cc1 [Compound 8],1%
20,N#Cc1c(NC(=O)c2ccc(C(=O)O)cc2C(=O)O)sc2c1CCCC2 [Compound 15],13%
21,O=C(O)CN[S@TB17](=O)(=O)c1ccc(C(=O)O)cc1 [Compound 19],0%
22,O=C(O)c1cc(C(=O)O)c(C(=O)O)cc1C(=O)O [Compound 24],> 25%

row,Compound,inhibition at 20 µM
1,O=C(O)c1ccccc1CN[C@@H](Cc1c[nH]c2ccccc12)C(=O)O [Compound 14],0%
2,O=C(O)c1cccc(NC(=O)[C@H]2CC=CC[C@H]2C(=O)O)c1 [Compound 11],0%
3,COc1ccc(N(CCC(=O)O)CCC(=O)O)cc1OC [Compound 4],2%
4,O=C(O)CCCC(=O)Nc1ccc(C(=O)O)cc1 [Compound 10],0%
5,CCOc1ccc(NC(=O)c2cc(C(=O)O)ccc2C(=O)O)cc1 [Compound 16],0%
6,O=C(O)c1ccc(CNCc2ccccc2C(=O)O)cc1 [Compound 31],8%
7,O=C(O)CCN(CCC(=O)O)c1ccccc1O [Compound 7],12%
8,O=C(NCCCCCCNC(=O)[C@H]1CCCC[C@H]1C(=O)O)[C@H]1CCCC[C@H]1C(=O)O [Compound 30],0%
9,O=C(O)c1ccc(NC(=O)c2ccccc2C(=O)O)cc1O [Compound 2],0%
10,CC(C)(CC(=O)Nc1scc(-c2cccs2)c1C(=O)O)CC(=O)Nc1scc(-c2cccs2)c1C(=O)O [Compound 22],> 25%
11,Cc1c(C)c(CC(C(=O)O)C(=O)O)c(C)c(C)c1CC(C(=O)O)C(=O)O [Compound 47],24%
12,CC(=O)c1ccc(NC(=O)c2ccc(C(=O)O)cc2C(=O)O)cc1 [Compound 38],0%
13,O=C(O)CSc1ncccc1C(=O)O [Compound 23],11%
14,Cc1cc(-c2ccc(NC(=O)CCC(=O)O)c(C)c2)ccc1NC(=O)CCC(=O)O [Compound 29],0%
15,O=C(O)c1ccc(C(=O)NCCc2ccccc2)c(C(=O)O)c1 [Compound 36],3%
16,O=C(O)Cn1c(COCc2nc3ccccc3n2CC(=O)O)nc2ccccc21 [Compound 20],8%
17,O=C(O)CCCC(=O)Nc1cccc(C(=O)O)c1 [Compound 35],1%
18,O=C(O)CSc1nnnn1-c1ccc(C(=O)O)cc1 [Compound 5],3%
19,Cc1sc(NC(=O)CC(C)(C)CC(=O)Nc2sc(C)c(C)c2C(=O)O)c(C(=O)O)c1C [Compound 3],11%
20,COc1ccc([S@TB4](=O)(=O)Oc2ccc(C(=O)O)cc2)cc1 [Compound 42],1%
21,O=C(O)c1ccc(C(=O)Nc2cc(Cl)ccc2Cl)c(C(=O)O)c1 [Compound 40],4%
22,O=C(O)c1ccc(C(=O)NCc2ccccc2)c(C(=O)O)c1 [Compound 37],1%

# Same assay, conditions: read-out: Inhibition [%] of GCPII activity
row,Compound,inhibition at 20 µM
1,O=[N+]([O-])c1ccc([S@TB4](=O)(=O)Oc2cccc(O[S@TB17](=O)(=O)c3ccc([N+](=O)[O-])cc3)c2)cc1 [Compound 43],1%
2,O=[N+]([O-])c1ccc([S@TB4](=O)(=O)Oc2ccc(O[S@TB17](=O)(=O)c3ccc([N+](=O)[O-])cc3)c(Br)c2)cc1 [Compound 50],1%
